In assay [1] the target is CDK4 cyclinD1 (Homo sapiens, UniProt P11802). Description: CDK4 cyclinD1 in vitro inhibition. The class given is biochemical. As for the experimental part: (§1) The kinase or bromodomain inhibitory activity of a compound of the invention can be determined by routine methods known to the skilled artisan without undue experimentation, or by procuring relevant analysis by a commercial vendor offering such services. […] In vivo, PI3K inhibition can be determined from target tissue biopsies by standard tissue processing in which cells are disrupted and Western Blot analysis is performed to determine the presence or absence of pAKT (substrate of PI3K) relative to a control sample. PI3K inhibition assays and BTK inhibition assays are known in the art and can be procured commercially through vendors such as Reaction Biology (Malvern, PA). The activity of a compound of the invention as an inhibitor of a bromodomain-containing protein, such as a BET protein, including BRD2, BRD3, BRD4, and/or BRDT, or an isoform or mutant thereof, may be determined in vitro, in vivo, or in a cell line. In vitro assays include assays that determine inhibition of bromodomain-containing proteins. Alternatively, inhibitor binding may be determined by running a competition experiment where a provided compound is incubated with a bromodomain-containing protein, such as a BET protein bound to known ligands, labeled or unlabeled. In vitro bromodomain inhibition assays can be performed using Alpha Screen Technology (Perkin Elmer Life and Analytical Sciences, Shelton, CT). In vivo bromodomain inhibition can be determined indirectly by evaluating the amount of a protein whose gene transcription is influenced or controlled by the bromodomain protein, for example, MYCN protein transcription is controlled by BRD4 (J.E. Delmore et al., Cell 2011, 146, 904-917; A. Puissant, Cancer Discov. 2013, 3, 308-323).
(§2) IC50 inhibition data against the indicated targets were determined for compounds of the invention using standard in vitro assays (Tables 8 and 9).

Assay [2] concerns the target PI3K alpha (Homo sapiens, UniProt P42336). The assay can be described thus: PI3K alpha in vitro inhibition. The class given is biochemical. As for the experimental part: as §1
The target of assay [3] is CDK6 cyclinD1 (Homo sapiens, UniProt Q00534). Description: CDK6 cyclinD1 in vitro inhibition. In kind it is biochemical. As for the experimental part:
as §1, §2

Assay [4] has as its target PI3K beta (Homo sapiens, UniProt P42338). Description: PI3K beta in vitro inhibition. In kind it is biochemical. As for the experimental part:
as §1

Assay [5] concerns the target PI3K gamma (Homo sapiens, UniProt P48736). The assay can be described thus: PI3K gamma in vitro inhibition. As to conditions: read-out: IC50 inhibition PI3K gamma. In kind it is biochemical. As for the experimental part:
as §1, §2

Assay [6] addresses T1, BRD4-1 (Homo sapiens, UniProt O60885).
T1 construct: BRD4-1
Description: BRD4-1 in vitro inhibition. In kind it is binding. As for the experimental part: as §1

Assay [7] has as its target T2, BRD4-2 (Homo sapiens, UniProt O60885).
T2 construct: BRD4-2
Description: BRD4-2 in vitro inhibition. The class given is binding. As for the experimental part:
as §1

In assay [8] the target is BTK C481S (Homo sapiens, UniProt Q06187, C481S). The assay can be described thus: BTK C481S in vitro inhibition. In kind it is biochemical. As for the experimental part:
as §1, §2

Assay [9] addresses BTK (Homo sapiens, UniProt Q06187). Description: BTK in vitro inhibition. The class given is biochemical. As for the experimental part: as §1, §2

For orientation: IC50 means the concentration that inhibits the measured activity by half.

Chain of BTK C481S (Q06187 whole entry C481S): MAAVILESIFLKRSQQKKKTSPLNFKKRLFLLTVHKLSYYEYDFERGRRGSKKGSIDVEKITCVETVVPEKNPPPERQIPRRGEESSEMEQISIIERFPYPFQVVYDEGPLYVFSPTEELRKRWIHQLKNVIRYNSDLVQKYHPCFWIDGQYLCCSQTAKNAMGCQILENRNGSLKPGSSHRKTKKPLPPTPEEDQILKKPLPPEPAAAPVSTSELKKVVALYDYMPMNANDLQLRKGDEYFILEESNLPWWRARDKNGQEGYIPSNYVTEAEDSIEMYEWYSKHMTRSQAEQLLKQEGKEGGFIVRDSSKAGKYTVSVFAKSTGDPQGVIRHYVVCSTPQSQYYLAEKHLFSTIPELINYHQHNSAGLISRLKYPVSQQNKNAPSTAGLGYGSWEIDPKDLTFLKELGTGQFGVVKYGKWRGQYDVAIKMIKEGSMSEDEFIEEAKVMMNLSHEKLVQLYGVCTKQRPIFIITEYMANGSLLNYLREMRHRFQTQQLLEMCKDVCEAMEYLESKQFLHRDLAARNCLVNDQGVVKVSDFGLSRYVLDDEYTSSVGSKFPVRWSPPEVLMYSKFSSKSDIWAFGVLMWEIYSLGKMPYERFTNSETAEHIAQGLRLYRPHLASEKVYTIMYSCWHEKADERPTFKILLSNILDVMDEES
Chain of CDK4 cyclinD1 (P11802 whole entry): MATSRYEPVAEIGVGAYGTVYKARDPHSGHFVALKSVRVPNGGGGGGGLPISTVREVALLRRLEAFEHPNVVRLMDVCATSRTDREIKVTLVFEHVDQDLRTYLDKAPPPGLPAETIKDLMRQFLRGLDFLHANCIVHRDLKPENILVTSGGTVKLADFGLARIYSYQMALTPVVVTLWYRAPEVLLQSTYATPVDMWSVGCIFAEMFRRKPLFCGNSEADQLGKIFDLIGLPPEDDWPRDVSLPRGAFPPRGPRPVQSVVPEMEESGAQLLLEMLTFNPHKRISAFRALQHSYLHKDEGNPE
Chain of CDK4 cyclinD1 (P24385 whole entry partner): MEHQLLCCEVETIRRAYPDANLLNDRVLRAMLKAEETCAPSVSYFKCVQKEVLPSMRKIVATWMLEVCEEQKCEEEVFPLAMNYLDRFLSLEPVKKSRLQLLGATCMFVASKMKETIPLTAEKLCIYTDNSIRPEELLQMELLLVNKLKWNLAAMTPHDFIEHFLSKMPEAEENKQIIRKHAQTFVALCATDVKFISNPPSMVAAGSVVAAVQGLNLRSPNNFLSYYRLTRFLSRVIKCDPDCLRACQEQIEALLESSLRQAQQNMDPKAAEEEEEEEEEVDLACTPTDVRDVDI
Chain of CDK6 cyclinD1 (Q00534 whole entry): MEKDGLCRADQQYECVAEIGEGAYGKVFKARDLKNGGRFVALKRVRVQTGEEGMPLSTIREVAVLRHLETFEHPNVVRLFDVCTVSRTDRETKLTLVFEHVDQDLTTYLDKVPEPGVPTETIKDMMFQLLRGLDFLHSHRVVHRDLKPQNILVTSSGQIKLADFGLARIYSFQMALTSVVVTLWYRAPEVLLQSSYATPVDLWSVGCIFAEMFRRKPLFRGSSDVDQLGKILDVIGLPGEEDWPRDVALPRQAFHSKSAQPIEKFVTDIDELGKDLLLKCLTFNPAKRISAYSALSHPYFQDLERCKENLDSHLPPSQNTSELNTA
Chain of CDK6 cyclinD1 (P24385 whole entry partner): as the sequence (P24385 whole entry partner) above
Chain of PI3K alpha (P42336 whole entry): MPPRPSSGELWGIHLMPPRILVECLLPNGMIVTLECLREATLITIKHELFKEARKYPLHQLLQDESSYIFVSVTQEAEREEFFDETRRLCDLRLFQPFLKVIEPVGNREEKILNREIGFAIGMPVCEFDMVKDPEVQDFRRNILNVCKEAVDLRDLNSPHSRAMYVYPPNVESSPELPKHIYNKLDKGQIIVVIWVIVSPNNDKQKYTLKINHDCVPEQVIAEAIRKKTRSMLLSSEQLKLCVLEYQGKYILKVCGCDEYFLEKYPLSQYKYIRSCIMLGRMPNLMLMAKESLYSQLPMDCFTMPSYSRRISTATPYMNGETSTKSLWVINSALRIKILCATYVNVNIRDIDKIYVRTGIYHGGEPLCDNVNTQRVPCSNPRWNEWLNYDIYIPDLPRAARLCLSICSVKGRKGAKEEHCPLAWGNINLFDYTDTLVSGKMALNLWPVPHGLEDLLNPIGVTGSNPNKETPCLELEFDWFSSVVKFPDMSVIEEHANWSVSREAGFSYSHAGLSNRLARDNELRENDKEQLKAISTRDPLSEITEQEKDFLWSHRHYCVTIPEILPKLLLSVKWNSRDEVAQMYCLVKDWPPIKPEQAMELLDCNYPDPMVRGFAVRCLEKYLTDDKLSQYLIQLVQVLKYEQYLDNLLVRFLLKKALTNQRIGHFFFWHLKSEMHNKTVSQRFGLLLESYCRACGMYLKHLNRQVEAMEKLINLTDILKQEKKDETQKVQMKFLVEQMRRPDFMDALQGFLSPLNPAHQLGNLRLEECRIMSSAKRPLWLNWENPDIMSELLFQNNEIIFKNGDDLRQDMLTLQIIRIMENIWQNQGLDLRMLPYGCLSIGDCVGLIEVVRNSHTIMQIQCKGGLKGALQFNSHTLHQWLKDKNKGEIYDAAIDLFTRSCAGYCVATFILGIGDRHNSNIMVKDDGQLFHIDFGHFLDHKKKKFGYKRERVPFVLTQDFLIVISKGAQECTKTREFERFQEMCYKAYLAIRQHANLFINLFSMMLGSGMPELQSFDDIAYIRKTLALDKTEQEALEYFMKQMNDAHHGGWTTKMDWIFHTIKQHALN
Chain of PI3K alpha (P27986 whole entry partner): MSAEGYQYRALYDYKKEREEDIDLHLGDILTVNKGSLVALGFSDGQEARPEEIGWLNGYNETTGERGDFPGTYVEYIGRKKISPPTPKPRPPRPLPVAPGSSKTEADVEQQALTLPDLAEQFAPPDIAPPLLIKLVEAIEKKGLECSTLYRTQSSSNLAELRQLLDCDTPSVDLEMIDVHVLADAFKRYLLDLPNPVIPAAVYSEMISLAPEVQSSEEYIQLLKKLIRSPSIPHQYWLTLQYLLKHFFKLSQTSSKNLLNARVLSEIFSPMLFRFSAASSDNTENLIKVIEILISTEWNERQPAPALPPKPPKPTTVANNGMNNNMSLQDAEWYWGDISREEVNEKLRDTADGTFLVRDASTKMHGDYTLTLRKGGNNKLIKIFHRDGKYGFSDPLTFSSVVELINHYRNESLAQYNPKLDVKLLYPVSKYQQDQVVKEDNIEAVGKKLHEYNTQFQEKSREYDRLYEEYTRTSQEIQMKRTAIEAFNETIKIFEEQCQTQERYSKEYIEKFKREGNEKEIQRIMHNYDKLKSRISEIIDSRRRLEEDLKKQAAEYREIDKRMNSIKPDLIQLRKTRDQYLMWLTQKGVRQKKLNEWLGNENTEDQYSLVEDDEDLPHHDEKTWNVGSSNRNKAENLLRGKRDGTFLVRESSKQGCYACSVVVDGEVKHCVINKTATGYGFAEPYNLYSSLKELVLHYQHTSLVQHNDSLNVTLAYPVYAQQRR
Chain of BTK (Q06187 whole entry): as the sequence (Q06187 whole entry C481S) above, with S481C counted along it
Chain of PI3K beta (P42338 whole entry): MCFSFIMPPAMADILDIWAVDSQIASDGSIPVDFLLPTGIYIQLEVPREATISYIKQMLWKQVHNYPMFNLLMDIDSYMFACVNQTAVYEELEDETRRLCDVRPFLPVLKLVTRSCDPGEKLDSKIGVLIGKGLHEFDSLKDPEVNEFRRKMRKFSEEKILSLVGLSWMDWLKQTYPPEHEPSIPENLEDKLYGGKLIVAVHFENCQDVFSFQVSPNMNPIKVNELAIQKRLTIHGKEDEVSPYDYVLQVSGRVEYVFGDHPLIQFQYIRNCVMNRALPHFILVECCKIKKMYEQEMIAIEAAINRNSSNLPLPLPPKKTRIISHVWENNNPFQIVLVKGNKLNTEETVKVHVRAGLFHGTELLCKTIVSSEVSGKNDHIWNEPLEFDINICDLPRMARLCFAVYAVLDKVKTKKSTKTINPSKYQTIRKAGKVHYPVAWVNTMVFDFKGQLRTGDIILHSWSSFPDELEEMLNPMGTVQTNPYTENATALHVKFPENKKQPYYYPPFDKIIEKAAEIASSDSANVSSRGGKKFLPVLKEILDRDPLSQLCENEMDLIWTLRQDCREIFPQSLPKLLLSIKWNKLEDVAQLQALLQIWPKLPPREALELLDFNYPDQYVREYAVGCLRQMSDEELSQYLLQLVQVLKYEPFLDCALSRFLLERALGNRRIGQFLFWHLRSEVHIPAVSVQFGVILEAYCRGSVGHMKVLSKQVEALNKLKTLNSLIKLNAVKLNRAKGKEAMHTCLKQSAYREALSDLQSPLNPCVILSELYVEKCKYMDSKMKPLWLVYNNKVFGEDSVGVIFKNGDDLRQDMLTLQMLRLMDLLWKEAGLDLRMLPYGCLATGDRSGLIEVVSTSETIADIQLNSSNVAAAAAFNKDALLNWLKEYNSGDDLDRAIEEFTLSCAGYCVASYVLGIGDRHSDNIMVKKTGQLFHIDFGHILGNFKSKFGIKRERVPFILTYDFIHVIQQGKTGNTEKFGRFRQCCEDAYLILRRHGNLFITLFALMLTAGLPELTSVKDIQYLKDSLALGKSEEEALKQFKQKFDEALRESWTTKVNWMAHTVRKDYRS
Chain of PI3K beta (P27986 whole entry partner): as the sequence (P27986 whole entry partner) above

Take `CN(C)C(=O)c1cc2cnc(Nc3ccc(-c4csc5c(=O)cc(N6CCOCC6)oc45)c(C(=O)NCCN)c3)nc2n1C1CCCC1` [Compound 22]: the IC50 in [1] is less than 500 nM; in [2], 500 to 1000 nM; in assay [3], less than 500 nM; in assay [4] it was less than 500 nM; in assay [5] it was 10000 to 45000 nM; in assay [6], greater than 45000 nM. Further, the 50% inhibitory concentration (IC50) in assay [7] was in the range of 1000 to 10000 nM.

On to `O=C(O)c1cc2cnc(Nc3ccc(-c4csc5c(=O)cc(N6CCOCC6)oc45)cc3)nc2n1C1CCCC1` [Compound 23], for which the IC50 in [1] was less than 500 nM; in assay [2] it was less than 500 nM; in assay [3], less than 500 nM; in assay [4], less than 500 nM; in [5], less than 500 nM; in assay [6] it was 500 to 1000 nM. The IC50 in [7] fell in the range of 1000 to 10000 nM.

As for `CC(C)n1c(C(=O)N(C)C)cc2cnc(Nc3ccc(-c4csc5c(=O)cc(N6CCOCC6)oc45)cc3)nc21` [Compound 25], the concentration for half-maximal inhibition (IC50) was less than 500 nM in assay [1]; less than 500 nM in [2]; less than 500 nM in [3]; less than 500 nM in [4]; 1000 to 10000 nM in assay [5]; less than 500 nM in assay [6]. The compound also showed a concentration for half-maximal inhibition (IC50) in assay [7] of less than 500 nM.

On to `C=CC(=O)N1CCOc2ccc(-c3csc4c(=O)cc(N5CCNCC5)oc34)cc21` [Compound 26], for which the IC50 in [2] was 10000 to 45000 nM; in assay [8], 10000 to 45000 nM; in assay [4] it was 1000 to 10000 nM; in assay [5], greater than 45000 nM; in assay [6], less than 500 nM; in assay [9], less than 500 nM.

For `C=CC(=O)Nc1cccc(-c2csc3c(=O)cc(N4CCNCC4)oc23)c1` [Compound 27], the IC50 in assay [2] was greater than 45000 nM; in assay [8] it was 10000 to 45000 nM; in [4], greater than 45000 nM; in assay [5], greater than 45000 nM; in assay [6], 500 to 1000 nM.

As for `C=CC(=O)N1CCOc2ccc(-c3csc4c(=O)cc(N5CCN(C)CC5)oc34)cc21` [Compound 28], the IC50 in assay [2] is 10000 to 45000 nM; in [4], 1000 to 10000 nM; in assay [5] it was greater than 45000 nM; in assay [9] it was less than 500 nM; in assay [7], 10000 to 45000 nM.

As to `C=CC(=O)N1CCOc2ccc(-c3csc4c(=O)cc(N5CCN(C(=O)OC(C)(C)C)CC5)oc34)cc21` [Compound 29], the IC50 in [2] is 10000 to 45000 nM; in [8], 10000 to 45000 nM; in [4], 1000 to 10000 nM; in assay [5], 10000 to 45000 nM; in assay [6], 500 to 1000 nM; in assay [9] it was less than 500 nM.

Consider `C=CC(=O)Nc1ccc(-c2csc3c(=O)cc(N4CCOCC4)oc23)cc1` [Compound 30], for which the IC50 in assay [2] is less than 500 nM; in assay [8], greater than 45000 nM; in assay [4] it was less than 500 nM; in assay [5] it was 500 to 1000 nM; in [6], 1000 to 10000 nM; in [9], 10000 to 45000 nM. The IC50 in assay [7] is less than 500 nM.

On to `C=CC(=O)Nc1cccc(-c2csc3c(=O)cc(N4CCOCC4)oc23)c1` [Compound 31], for which the half-inhibitory concentration (IC50) in assay [2] was less than 500 nM; in assay [8], greater than 45000 nM; in assay [4], less than 500 nM; in assay [5] it was 1000 to 10000 nM; in assay [6] it was 500 to 1000 nM; in [9], 500 to 1000 nM. Further, the IC50 in assay [7] fell in the range of 1000 to 10000 nM.

With `C=CC(=O)N1CCOc2ccc(-c3csc4c(=O)cc(N5CCOCC5)oc34)cc21` [Compound 32], the IC50 is less than 500 nM in [2]; 10000 to 45000 nM in assay [8]; less than 500 nM in assay [4]; less than 500 nM in assay [5]; less than 500 nM in [6]; less than 500 nM in [9]. In assay [7], this compound came in with a 50% inhibitory concentration (IC50) of less than 500 nM.

With `COc1cc(NC(C)=O)cc(-c2csc3c(=O)cc(N4CCOCC4)oc23)c1` [Compound 33], the 50% inhibitory concentration (IC50) is less than 500 nM in assay [2]; greater than 45000 nM in assay [8]; less than 500 nM in assay [4]; less than 500 nM in assay [5]; less than 500 nM in assay [6]; 500 to 1000 nM in [9]. Moreover, the IC50 in assay [7] lay within 1000 to 10000 nM.

In the case of `CCCCC/C=C/C(=O)Nc1cccc(-c2csc3c(=O)cc(N4CCOCC4)oc23)c1` [Compound 34], the IC50 in assay [8] was greater than 45000 nM; in [4] it was 1000 to 10000 nM; in assay [5], 10000 to 45000 nM; in assay [9], greater than 45000 nM; in assay [7], 10000 to 45000 nM.

The values above are taken from patent US20230165873A1, “Methods of Use for Single Molecule Compounds Providing Multi-Target Inhibition to Treat Covid 19” (priority 2020, published 2023).
